# Source: patent US20250177351A1, “ISOINDOLINE COMPOSITIONS AND METHODS FOR TREATING NEURODEGENERATIVE DISEASE” (Cognition Therapeutics, Inc., priority 2022, published 2025)
# “Also recorded” adds a separate entry of the source. Marks after values point to notes of the source that are not given here.
# Key:
# [1] = Phase 1b/2a clinical trial (COG0102): safety, tolerability, exploratory cognitive outcomes; assay type: in vivo, human
# Experimental: Safety and pharmacokinetics were primary objectives of the study, with changes in molecular biomarkers and cognitive outcomes identified as an exploratory objective.
# Plasma and CSF protein expression were measured by LC/MSMS in samples drawn prior to dosing (Day 0) and at end of dosing (Day 28) and were compared within each patient and between dosing groups.
# COG0102 clinical trial: This trial (ClinicalTrials.gov NCT02907567) was a randomized, double-blind, placebo-controlled clinical trial in mild to moderate Alzheimer's patients (MMSE 18-26) (See FIG. 1 for clinical trial design). The trial was conducted at six sites in Australia. Patients were randomized into placebo (n=5) or CT1812-treated groups: 90 mg (n=4), 280 mg (n=5) or 560 mg (n=5) and treated once daily for 28 days. Clinical chemistry was done at Sydpath (Sydney, AU). Pharmacokinetics were done at CPR Pharma Services (Adelaide, AU). Cerebrospinal fluid samples were taken at screening and day 21-28 of treatment and aliquoted. Plasma samples were taken at screening or Day 1 (one sample) and day 14-28, then spun down to separate plasma and aliquoted. One set of CSF samples was analyzed for Alzheimer's disease biomarkers; protein measurements (Aβ42, Aβ40, total tau, tau phosphorylated at threonine 181 (phosphorylated tau), NFL and neurogranin) were performed using commercially available ELISA assays from Fujirebio according to the manufacturer's instructions (INNOTEST β-AMYLOID(1-42), INNOTEST β-AMYLOID(1-40), INNOTEST hTau Ag, INNOTEST PHOSPHO-TAU(181P), Uman Diagnostics NFL assay). Neurogranin was measured with a sandwich ELISA method using antibodies Ng2 and Ng22 developed at the University of Gotteborg (Kvartsberg et al. 2015). Identical aliquots of CSF, and plasma were analyzed for protein expression changes via LC/MSMS at Caprion (see below).
# [2] = Phase 1 SAD study: safety assessments; assay type: in vivo, human
# Experimental: Part A was a single ascending dose cohort study in which healthy, young subjects (less than 65 years old) received one dose of study drug in the morning after an overnight fast. Cohort dosing started at 10 mg and increased to 30 mg, 90 mg, 180 mg, 450 mg, and 1120 mg in subsequent cohorts. Six drug-treated and two placebo-treated subjects were randomized in each cohort. A seventh cohort of six subjects each received a single 90 mg dose of drug 30 min. after a meal. Following completion of all safety assessments and blood draws for PK analyses, subjects were discharged on Day 3.
# Safety variables, including incidence of adverse events (AEs), vital signs, clinical laboratory findings, 12-lead electrocardiographs (ECGs), physical examination, and affective and cognitive measures (Part B only), were summarized for all subjects who received study drug.
# [3] = Aged transgenic mouse models of AD; assay type: in vivo
# [4] = AD patients, 28 days, 90 mg (as in Table 3)
# [5] = AD patients, 28 days, 90 mg (n = 4)
# [6] = AD patients, 28 days, 280 mg (as in Table 3)
# [7] = AD patients, 28 days, 280 mg (n = 5)
# [8] = AD patients, 28 days, 560 mg (as in Table 3)
# [9] = AD patients, 28 days, 560 mg (n = 5)
structure (smiles),measurement,setting,value
CC(C)(C)Oc1cc(CCC(C)(C)N2Cc3ccc(S(C)(=O)=O)cc3C2)ccc1O [CT1812],patients with lymphocytopenia,"[1]; AD patients, 560 mg, 3 mild, resolved by end of study",Four
same,ALT in one participant,"[1]; AD patients, 560 mg, resolved by end of study, no increase in bilirubin",~4.7 ×ULN
same,tolerability,"[1]; AD patients, 90, 280 and 560 mg, 28 days",well tolerated with no drug-related significant adverse events reported; also recorded: generally safe and well tolerated at all doses
same,Headache,[1]; [4],1 (25%) n (%)
same,Lymphocytopenia,[1]; [4],0 (0%) n (%)
same,Nausea,[1]; [4],0 (0%) n (%)
same,Vomiting,[1]; [4],0 (0%) n (%)
same,Mild TEAEs,[1]; [5],4 (100%) n (%)
same,Moderate TEAEs,[1]; [5],0 (0%) n (%)
same,SAEs,[1]; [5],0 (0%) n (%)
same,Severe TEAEs,[1]; [5],0 (0%) n (%)
same,TEAEs,[1]; [5],3 (75%) n (%)
same,Headache,[1]; [6],0 (0%) n (%)
same,Lymphocytopenia,[1]; [6],0 (0%) n (%)
same,Nausea,[1]; [6],0 (0%) n (%)
same,Vomiting,[1]; [6],0 (0%) n (%)
same,Mild TEAEs,[1]; [7],3 (60%) n (%)
same,Moderate TEAEs,[1]; [7],1 (20%) n (%)
same,SAEs,[1]; [7],0 (0%) n (%)
same,Severe TEAEs,[1]; [7],0 (0%) n (%)
same,TEAEs,[1]; [7],4 (80%) n (%)
same,Headache,[1]; [8],2 (40%) n (%)
same,Lymphocytopenia,[1]; [8],3 (60%)* n (%)
same,Nausea,[1]; [8],2 (40%) n (%)
same,Vomiting,[1]; [8],2 (40%) n (%)
same,Mild TEAEs,[1]; [9],5 (100%) n (%)
same,Moderate TEAEs,[1]; [9],3 (60%) n (%)
same,SAEs,[1]; [9],0 (0%) n (%)
same,Severe TEAEs,[1]; [9],0 (0%) n (%)
same,TEAEs,[1]; [9],5 (100%) n (%)
same,ECG,[2]; SAD,No ECG parameters or changes were assessed as clinically significant
same,clinical laboratory results,[2]; SAD,no subjects with clinically significant laboratory results
same,Number of Subjects with Treatment-Emergent AE: All TEAEs,[2]; SAD Total Active (n = 42),18
same,Number of Subjects with Treatment-Emergent AE: Headache,[2]; SAD Total Active (n = 42),6
same,Number of Subjects with Treatment-Emergent AE: Nausea,[2]; SAD Total Active (n = 42),6
same,Number of Subjects with Treatment-Emergent AE: All TEAEs,[2]; SAD fasted 10 mg (n = 6),2
same,Number of Subjects with Treatment-Emergent AE: All TEAEs,[2]; SAD fasted 30 mg (n = 6),4
same,Number of Subjects with Treatment-Emergent AE: Headache,[2]; SAD fasted 30 mg (n = 6),3
same,Number of Subjects with Treatment-Emergent AE: Nausea,[2]; SAD fasted 30 mg (n = 6),1
same,Number of Subjects with Treatment-Emergent AE: All TEAEs,[2]; SAD fasted 180 mg (n = 6),2
same,Number of Subjects with Treatment-Emergent AE: All TEAEs,[2]; SAD fasted 450 mg (n = 6),4
same,Number of Subjects with Treatment-Emergent AE: Headache,[2]; SAD fasted 450 mg (n = 6),1
same,Number of Subjects with Treatment-Emergent AE: Nausea,[2]; SAD fasted 450 mg (n = 6),2
same,Number of Subjects with Treatment-Emergent AE: All TEAEs,[2]; SAD fasted 1120 mg (n = 6),4
same,Number of Subjects with Treatment-Emergent AE: Headache,[2]; SAD fasted 1120 mg (n = 6),1
same,Number of Subjects with Treatment-Emergent AE: Nausea,[2]; SAD fasted 1120 mg (n = 6),3
same,Number of Subjects with Treatment-Emergent AE: All TEAEs,[2]; SAD fed 90 mg (n = 6),2
same,Number of Subjects with Treatment-Emergent AE: Headache,[2]; SAD fed 90 mg (n = 6),1
same,deaths or serious adverse events,"[2]; SAD, 10 mg to 1120 mg",no deaths or other serious adverse events
same,tolerability,"[2]; single dose 10 mg to 1120 mg, healthy subjects",well tolerated
same,cognitive performance,[3]; aged transgenic mouse models of AD,restoring normal cognitive performance
same,inflammatory protein expression in CSF,"[3]; chronic treatment of aged transgenic mice, efficacious doses, LC/MSMS",significantly reduces
